Tests used:
[1] = biological target: T1, Histamine H3 receptor (Homo sapiens, UniProt Q9Y5N1); experiment: Displacement of [3H]Nalpha-methylahistamine from human histamine H3 receptor
[2] = biological target: Histamine H4 receptor (Homo sapiens, UniProt Q9H3N8); experiment: Displacement of [3H]histamine from human histamine H4 receptor
[3] = biological target: T1, Histamine H3 receptor; experiment: Binding affinity to histamine H3 receptor

T1 sequence (Q9Y5N1 whole entry): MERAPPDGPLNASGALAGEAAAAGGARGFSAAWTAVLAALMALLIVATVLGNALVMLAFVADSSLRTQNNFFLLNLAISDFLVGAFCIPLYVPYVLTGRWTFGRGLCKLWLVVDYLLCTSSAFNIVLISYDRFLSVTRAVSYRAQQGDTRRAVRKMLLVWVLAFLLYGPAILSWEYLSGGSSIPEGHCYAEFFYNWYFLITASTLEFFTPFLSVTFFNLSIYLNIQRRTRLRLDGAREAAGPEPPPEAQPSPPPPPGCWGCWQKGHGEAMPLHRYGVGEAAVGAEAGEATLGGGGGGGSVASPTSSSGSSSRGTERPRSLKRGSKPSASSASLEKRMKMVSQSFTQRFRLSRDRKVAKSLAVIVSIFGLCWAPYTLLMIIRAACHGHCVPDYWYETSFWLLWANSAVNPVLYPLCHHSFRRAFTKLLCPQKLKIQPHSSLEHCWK
Chain of Histamine H4 receptor (Q9H3N8 whole entry): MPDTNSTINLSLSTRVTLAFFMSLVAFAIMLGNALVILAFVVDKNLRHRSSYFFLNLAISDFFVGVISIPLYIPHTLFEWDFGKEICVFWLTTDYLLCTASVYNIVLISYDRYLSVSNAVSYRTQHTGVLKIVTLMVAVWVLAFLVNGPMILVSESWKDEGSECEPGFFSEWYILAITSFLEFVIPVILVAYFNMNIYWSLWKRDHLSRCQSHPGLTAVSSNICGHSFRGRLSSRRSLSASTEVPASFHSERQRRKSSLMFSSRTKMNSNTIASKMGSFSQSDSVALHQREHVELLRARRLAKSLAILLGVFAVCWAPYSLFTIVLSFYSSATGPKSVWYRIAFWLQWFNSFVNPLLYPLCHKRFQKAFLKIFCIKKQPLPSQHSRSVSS

Structure (SMILES) | Ki [1] [nM] | Ki [2] [nM] | Ki [3] [nM]
Cc1nc[nH]c1[C@@H]1C[C@H]1CCNCc1ccc(Cl)cc1 | 38.7 | 148 | 
NCC[C@@H]1C[C@@H]1c1cnc[nH]1 |  |  | 1.3
Cc1[nH]cnc1[C@@H]1C[C@H]1CNCc1ccc(Cl)cc1 | > 1000 | > 1000 | 
